Literature values, collected in patent US20160017431A1, “Methods for Predicting EGFR Tyrosine Kinase Inhibitor Efficacy” (Driver Group, priority 2014, published 2016).

System: EGFR mutants carrying the T790M mutation
Settings: statement 'has been shown', no data given

Row | Compound | inhibition of the tyrosine kinase activity of EGFR mutants carrying the T790M mutation
1 | COc1cc(N2CCC(N(C)C)CC2)ccc1Nc1ncc(Cl)c(Nc2ccccc2P(C)(C)=O)n1 [AP26113] | able to inhibit the tyrosine kinase activity
2 | COc1cc2ncnc(Nc3ccc(F)c(Cl)c3)c2cc1NC(=O)/C=C/CN1CCCCC1 [Dacomitinib] | able to inhibit the tyrosine kinase activity
